# Assay results reported in US20250011881A1, “MYC-HSF1 DUAL AMPLIFICATION AS A BIOMARKER FOR CANCER TREATMENT” (The Trustees of Indiana University, priority 2023, published 2025).
# “And” between values parts separate entries of the source, which are not always exact repeats. Identical values can stand only once. Counter-ions that a name gives are not always drawn.
# Test system: ovarian cancer cells with (OVCAR8, OVCAR4) or without (OVSAHO, CAOV3) MYC-HSF1 amplification
# Assay: Epigenetic inhibitor drug screen, cell viability (Cell Titer Blue)
# Format: cell-based
# Conditions: not given
row,Compound,Non Amp - AMP (POC) 10 uM [POC]
1,O=C(CCCCCCC(=O)NO)NO [SBHA],0.3146
2,Cc1ccc(-n2sc3ccccc3c2=O)cc1 [PBIT],−46.19
3,N=C1NC(=O)/C(=C/c2ccc(O)cc2)S1 [Mirin],4.24
4,Cl.Cl.c1cc(-c2cnn3cc(-c4ccc(OCCN5CCCCC5)cc4)cnc23)ccn1 [Dorsomorphin 2HCl],15.62
5,Ginkgolide C,−1.319
6,C=C1C(=O)O[C@@H](CCC)[C@@H]1C(=O)O [Butyrolacetone 3],9.966
7,CCS(=O)(=O)Nc1ccc2c(c1)/C(=C(/Nc1ccc(CN3CCCCC3)cc1)c1ccccc1)C(=O)N2 [Hesperadin],39.85

# Same assay, conditions: 10 µM
row,Compound,Non Amp - AMP (POC) 10 uM [POC]
1,COc1cc2c(NC3CCN(C(C)C)CC3)nc(N3CCC(F)(F)CC3)nc2cc1OCCCN1CCCC1 [UNC 0642],6.253

# Same assay, conditions: 10 uM, 48 hrs; average relative cell viability (vs 1% DMSO) of non-amplified cells (OVSAHO, CAOV3) minus that of MYC-HSF1 amplified cells (OVCAR8, OVCAR4); positive = greater response in amplified cells
row,Compound,Non Amp - AMP (POC) 10 uM [POC]
1,CCCCCCCCOC(=O)C(O)CCC(=O)O (stereo not drawn) [Octyl-a-hydroxyglutarate],0.5587
2,NC(=O)c1ccccn1 [Picolinamide],20.35
3,CCCC(CCC)C(=O)[O-].[Na+] [Valproic acid sodium salt],−19.36
4,O=C1c2c(O)ccc(O)c2C(=O)c2c(NCCNCCO)ccc(NCCNCCO)c21 [Mitoxantrone HCl],11.28
5,CN1CCc2c(c3ccccc3n2Cc2ccc(C(=O)NO)cc2)C1 [Tubastatin A],15.75
6,CCN(CC)Cc1cc(Nc2ccnc3cc(Cl)ccc23)ccc1O [Amodiaquine dihydrochloride dihydrate],−0.1196
7,C#CCC(CCCCCC)C(=O)O (stereo not drawn) [2-hexyl-4-Pentynoic Acid],2.599
8,C=C(C)[C@@H](CC=C(C)C)C[C@@]12C[C@@H](CC=C(C)C)C(C)(C)[C@@](CC=C(C)C)(C(=O)C(C(=O)c3ccc(O)c(O)c3)=C1O)C2=O [Garcinol],6.401
9,O=C(O)c1ccccc1Nc1cccc(C(F)(F)F)c1 [Flufenamic acid],−4.318
10,"Cn1cc(C2=C(c3cn(C4CCN(Cc5ccccn5)CC4)c4ccccc34)C(=O)NC2=O)c2ccccc21 [Enzastaurin (LY317615), Enzastaurin]",13.08
11,CC1COc2c(N3CCN(C)CC3)c(F)cc3c(=O)c(C(=O)O)cn1c23 (stereo not drawn) [Ofloxacin],5.913
12,CNNCc1ccc(C(=O)NC(C)C)cc1 [Procarbazine HCl],1.149
13,O=C(O)CCNc1cc(N2CCc3ccccc3CC2)nc(-c2ccccn2)n1 [GSK-J1 (sodium salt)],8.487
14,N#Cc1ccc(COc2ccc(-c3cccc4nc(NC(=O)C5CC5)nn34)cc2)cn1 [GLPG0634 analogue],−7.702
15,"NC(=O)c1ccc(I)c([N+](=O)[O-])c1 [Iniparib (BSI-201), Iniparib]",−7.53
16,Cc1ccc2nc(NCCN)c3ncc(C)n3c2c1 [BMS-345541 (free base)],19.27
17,COc1cc2c(NC3CCN(C)CC3)nc(N3CCCN(C)CC3)nc2cc1OCCOCCN(C)C [UNC0321 (trifluoroacetate salt)],0.4275
18,CCn1c(-c2nonc2N)nc2c(C#CC(C)(C)O)ncc(OC[C@H]3CCCNC3)c21 [GSK690693],−7.029
19,"O=C(c1cc(Cc2n[nH]c(=O)c3ccccc23)ccc1F)N1CCN(C(=O)C2CC2)CC1 [Olaparib (AZD2281, Ku-0059436), Olaparib]",3.527

row,Compound,Non Amp - AMP (POC) 10 uM [POC]
1,[H]/N=C(/N)N/C(=N/[H])NCCc1ccccc1 [Phenformin HCl],7.32
2,CCS(=O)(=O)N1CCC([C@@H](C)n2c(C)c(C(=O)NCc3c(OC)cc(C)[nH]c3=O)c3ccccc32)CC1 [CPI-169],3.906
3,O=c1c(O)c(-c2ccc(O)c(O)c2)oc2cc(O)ccc12 [Fisetin],10.02
4,CCC(C)SSc1ncc[nH]1 (stereo not drawn) [PX 12],−7.518
5,Cc1cc(Nc2cc(N3CCN(C)CC3)nc(/C=C/c3ccccc3)n2)n[nH]1 [ENMD-2076],−22.8
6,O=C(O)c1ccc(Nc2ncc3c(n2)-c2ccc(Cl)cc2C(c2c(F)cccc2F)=NC3)cc1 [MLN8054],−12.87
7,COc1ccc2c(c1)c(C1=C(c3c[nH]c4ccccc34)C(=O)NC1=O)cn2CCCN(C)C [Go 6983],14.34
8,NC(=O)c1cccc2[nH]c(-c3ccc([C@@H]4CCCN4)cc3F)nc12 [A-966492],13.6
9,COc1ccc(S(=O)(=O)ON=C2C=C(C)C(=O)C(C)=C2)cc1 [L002],−39.83
10,CC(C)(CNC(=O)c1cccc(-c2noc(C(F)(F)F)n2)c1)c1coc(-c2ccccc2)n1 [TMP-195],0.5425
11,CN1C/C=C/CCOc2cccc(c2)-c2ccnc(n2)Nc2cccc(c2)C1 [SB1317],5.059
12,SNS-314 Mesylate,1.355
13,CN1CCN(C(=O)CN[C@H]2C[C@@H]2c2ccc(OCc3ccccc3)cc2)CC1.Cl.Cl [RN-1 (hydrochloride)],−2.198
14,Cc1cnc(Nc2ccc(OCCN3CCCC3)cc2)nc1Nc1cccc(S(=O)(=O)NC(C)(C)C)c1 [TG101348 (SAR302503)],−1.346
15,CC1=CC(=O)c2c(O)cccc2C1=O [Plumbagin],4.102
16,CCCCCCCCCCCCCC(=S)NCCCC[C@H](NC(=O)OCc1ccccc1)C(=O)Nc1ccccc1 [Thiomyristoyl],−0.8381
17,CC(C)[C@H](C(=O)Nc1ccc(C(=O)NO)cc1)c1ccccc1 [AR-42 (OSU-HDAC42)],−6.14
18,COc1ccc(-n2c(SCCCN3C(=O)c4cccc5cccc(c45)C3=O)nnc2-c2ccncc2)cc1 [WIKI4],10.07

# Same assay, conditions: 10 uM, 48 hrs; average relative cell viability (vs 1% DMSO) of non-amplified cells (OVSAHO, CAOV3) minus that of MYC-HSF1 amplified cells (OVCAR8, OVCAR4); positive = greater response in amplified cells; 10 µM
row,Compound,Non Amp - AMP (POC) 10 uM
1,Nc1nccc2c1ncn2[C@@H]1C=C(CO)[C@@H](O)[C@H]1O [3-Deazaneplanocin A (DZNep) hydrochloride],8.136 POC
2,"O=C(O)c1ccnc(C(=O)O)c1 [2,4-Pyridinedicarboxylic Acid (hydrate), 2,4-Pyridinedicarboxylic Acid]",10.85 POC
3,"N[C@@H]1C[C@H]1c1ccccc1 (racemic) [Tranylcypromine (hydrochloride), Tranylcypromine]",0.7437 POC
4,CC(C)Oc1ccc(-c2c[nH]cc2CN(C)CCN)cc1 [MS023 (hydrochloride)],6.531 POC
5,CCCCNNC(=O)c1ccc(Br)cc1 [UF010],54.18 POC
6,CCNC(=O)C[C@@H]1N=C(c2ccc(Cl)cc2)c2cc(OC)ccc2-n2c(C)nnc21 [I-BET-762],5.52 POC
7,O=C(O)c1ccc(CN2CCC(CN[C@@H]3C[C@H]3c3ccccc3)CC2)cc1 [GSK2879552],13.47 POC and 12.35 POC
8,"CC(=O)Nc1ccc(C(=O)Nc2ccccc2N)cc1 [CI-994, Tacedinaline]",25.18 POC
9,Nc1nc2nc[nH]c2c(=S)[nH]1 [6-Thioguanine],12.09 POC
10,O=C(/C=C/N1C[C@H]2C[C@@H]1CN2c1ccccn1)c1ccccc1O [PFI-3],12.92 POC
11,CC(C)C(=O)SCCCCCCC(=O)Nc1nc(-c2ccccc2)cs1 [NCH-51],27.52 POC

# Same assay, conditions: 10 uM, 48 hrs; average relative cell viability (vs 1% DMSO) of non-amplified cells (OVSAHO, CAOV3) minus that of MYC-HSF1 amplified cells (OVCAR8, OVCAR4); positive = greater response in amplified cells; listed as CI994 (Tacedinaline), 10 µM
row,Compound,Non Amp - AMP (POC) 10 uM [POC]
1,"CC(=O)Nc1ccc(C(=O)Nc2ccccc2N)cc1 [CI-994, Tacedinaline]",16.47

# Same assay, conditions: 10 uM, 48 hrs; average relative cell viability (vs 1% DMSO) of non-amplified cells (OVSAHO, CAOV3) minus that of MYC-HSF1 amplified cells (OVCAR8, OVCAR4); positive = greater response in amplified cells; listed as I-BET762, 10 µM
row,Compound,Non Amp - AMP (POC) 10 uM [POC]
1,CCNC(=O)C[C@@H]1N=C(c2ccc(Cl)cc2)c2cc(OC)ccc2-n2c(C)nnc21 [I-BET-762],−1.572

# Same assay, conditions: 10 uM, 48 hrs; average relative cell viability (vs 1% DMSO) of non-amplified cells (OVSAHO, CAOV3) minus that of MYC-HSF1 amplified cells (OVCAR8, OVCAR4); positive = greater response in amplified cells; listed as NCH 51, 10 µM
row,Compound,Non Amp - AMP (POC) 10 uM [POC]
1,CC(C)C(=O)SCCCCCCC(=O)Nc1nc(-c2ccccc2)cs1 [NCH-51],9.119

# Same assay, conditions: 10 uM, 48 hrs; average relative cell viability (vs 1% DMSO) of non-amplified cells (OVSAHO, CAOV3) minus that of MYC-HSF1 amplified cells (OVCAR8, OVCAR4); positive = greater response in amplified cells; listed as PFI 3, 10 µM
row,Compound,Non Amp - AMP (POC) 10 uM [POC]
1,O=C(/C=C/N1C[C@H]2C[C@@H]1CN2c1ccccn1)c1ccccc1O [PFI-3],5.077

# Same assay, conditions: 10 uM, 48 hrs; average relative cell viability (vs 1% DMSO) of non-amplified cells (OVSAHO, CAOV3) minus that of MYC-HSF1 amplified cells (OVCAR8, OVCAR4); positive = greater response in amplified cells; listed as Tranylcypromine hydrochloride, 10 µM
row,Compound,Non Amp - AMP (POC) 10 uM [POC]
1,"N[C@@H]1C[C@H]1c1ccccc1 (racemic) [Tranylcypromine (hydrochloride), Tranylcypromine]",−0.6348

# Same assay, conditions: 10 uM, 48 hrs; average relative cell viability (vs 1% DMSO) of non-amplified cells (OVSAHO, CAOV3) minus that of MYC-HSF1 amplified cells (OVCAR8, OVCAR4); positive = greater response in amplified cells; listed as UF 010, 10 µM
row,Compound,Non Amp - AMP (POC) 10 uM [POC]
1,CCCCNNC(=O)c1ccc(Br)cc1 [UF010],21.86

# Same assay, conditions: listed as UNC0642, 10 µM
row,Compound,Non Amp - AMP (POC) 10 uM [POC]
1,COc1cc2c(NC3CCN(C(C)C)CC3)nc(N3CCC(F)(F)CC3)nc2cc1OCCCN1CCCC1 [UNC 0642],−5.587
